Assay results: publication PMC9655428, “N-Hydroxy-N-Propargylamide Derivatives of Ferulic Acid: Inhibitors of Cholinesterases and Monoamine Oxidases” (Molecules, 2022)
“Also recorded” adds a separate entry of the source.

Legend:
[1] = target: T1, hAChE (Homo sapiens, UniProt P22303); assay: Inhibition of hAChE (Ellman spectrophotometric assay); format: biochemical; settings: for hAChE % @ 10 µM: inhibition at 10 µM; for IC50: seven concentrations 30–0.01 µM
T1 construct: purchased Sigma Aldrich
Description: (§1) Inhibition assays were performed according to previously published protocols. […] Compound 3 is a hydroxamate in which the piperidine ring is attached to the C4 oxygen via an n-butyl linker, while compound 6 is a corresponding N-propargylhydroxamate.
(§2) Inhibition assays were performed according to previously published protocols. […] Briefly, the classical Ellman spectrophotometric assay (for ChEs) and fluorimetric detection of 4-hydroxyquinoline (for MAOs) were adapted to a plate reading procedure using 96-well microtiter plates (Greiner Bio-Frickenhausen, Frickenhausen, Germany). Readings were performed using the Infinite M1000 Pro plate reader (Tecan, Cernusco s.N., Cernusco sul Naviglio, MI, Italy), and statistical regression was performed using Prism software (GraphPad Prism version 5.00 for Windows, GraphPad Software, San Diego, CA, USA).

[2] = target: T2, hBChE (Homo sapiens, UniProt P06276); assay: Inhibition of hBChE (Ellman spectrophotometric assay); format: biochemical; settings: ni = no inhibition; for hBChE % @ 10 µM: inhibition at 10 µM
T2 construct: purchased Sigma Aldrich
Description: as §1, §2

[3] = target: T3, hMAO-A (Homo sapiens, UniProt P21397); assay: Inhibition of hMAO-A (fluorimetric detection of 4-hydroxyquinoline); format: biochemical; settings: ni = no inhibition
T3 construct: purchased Sigma Aldrich
T3 sequence (P21397 1-527): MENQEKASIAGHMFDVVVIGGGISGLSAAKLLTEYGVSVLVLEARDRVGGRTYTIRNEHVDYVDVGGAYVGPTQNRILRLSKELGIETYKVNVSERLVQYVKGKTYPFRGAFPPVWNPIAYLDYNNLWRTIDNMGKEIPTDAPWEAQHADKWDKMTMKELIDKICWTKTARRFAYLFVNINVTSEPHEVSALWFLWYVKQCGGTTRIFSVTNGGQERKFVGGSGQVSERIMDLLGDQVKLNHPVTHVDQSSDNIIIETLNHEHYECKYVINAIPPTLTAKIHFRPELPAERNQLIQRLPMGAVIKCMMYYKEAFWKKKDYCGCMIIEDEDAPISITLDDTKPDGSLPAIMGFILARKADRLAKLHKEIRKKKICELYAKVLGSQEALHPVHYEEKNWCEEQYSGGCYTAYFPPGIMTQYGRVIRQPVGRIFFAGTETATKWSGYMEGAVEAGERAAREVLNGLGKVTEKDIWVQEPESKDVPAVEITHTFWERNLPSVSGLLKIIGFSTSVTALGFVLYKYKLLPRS
Description: as §1, §2

[4] = target: T4, hMAO-B (Homo sapiens, UniProt P27338); assay: Inhibition of hMAO-B (fluorimetric detection of 4-hydroxyquinoline); format: biochemical; settings: ni = no inhibition
T4 construct: purchased Sigma Aldrich
T4 sequence (P27338 1-520): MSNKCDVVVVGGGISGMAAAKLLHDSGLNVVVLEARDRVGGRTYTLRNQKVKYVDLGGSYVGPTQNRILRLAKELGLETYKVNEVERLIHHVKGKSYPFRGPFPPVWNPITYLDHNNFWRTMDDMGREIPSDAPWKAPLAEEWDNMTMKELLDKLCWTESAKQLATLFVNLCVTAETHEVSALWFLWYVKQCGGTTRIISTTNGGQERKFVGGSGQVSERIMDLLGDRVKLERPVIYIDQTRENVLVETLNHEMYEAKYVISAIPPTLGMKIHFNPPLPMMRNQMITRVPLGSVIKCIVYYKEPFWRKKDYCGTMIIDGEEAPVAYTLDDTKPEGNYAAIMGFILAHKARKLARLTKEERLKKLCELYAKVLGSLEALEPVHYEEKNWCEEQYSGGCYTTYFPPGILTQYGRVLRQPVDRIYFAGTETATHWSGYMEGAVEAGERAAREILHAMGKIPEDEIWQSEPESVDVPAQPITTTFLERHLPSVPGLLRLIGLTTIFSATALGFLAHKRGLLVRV
Description: as §1, §2

[5] = DPPH radical-scavenging assay; settings: DPPH 70 µM in MeOH, 1.5 h incubation
Excerpt: In addition, antioxidants or natural products containing polyphenols are also being investigated in clinical trials involving AD patients. Therefore, the antioxidant properties of compound 4 were investigated using the 2,2-diphenyl-1-picrylhydrazyl radical (DPPH) scavenging assay, a simple and reliable in vitro assay. […] Hydroxamic acids are considered to be potent antioxidants, and, in combination with cholinesterase inhibitory activity, could not only alleviate symptoms but also have disease-modifying effects.
Compound 4 at concentrations of 3.125–50 µM was incubated for 1.5 h with 2,2-diphenyl-1-picrylhydrazyl radical (DPPH, 70 µM) in MeOH, and absorbance was measured (λ = 517 nm) using a Synergy™ H4 reader (BioTek Instruments, Inc., Winooski, VT, USA). The experiment was performed in three technical replicates, and the blank sample (compound 4 without DPPH) was subtracted. The results are expressed as the percentage of DPPH free radicals (DPPH free radicals (%) = ((A0 − A1)/A0) × 100, where A0 is the absorbance of DPPH in MeOH and A1 is the absorbance of DPPH in the presence of compound 4).

[6] = Metal chelation, UV-Vis absorption assay, Cu2+; format: physicochemical; settings: 30 µM compound, equimolar CuCl2, 30 min, pH 7.4
Description: (§3) Another therapeutic possibility currently under investigation is metal chelation, which could affect not only the redox cycling of metal ions but also Aβ- and tau-pathology. Metal chelation of compound 4 was investigated using a UV-Vis absorption assay, in which the compound was incubated with equimolar concentrations of the major bivalent biometals (i.e., Ca^2+, Mg^2+, Zn^2+, Cu^2+, Fe^2+, Mn^2+, Co^2+, and Ni^2+) (Figure 4).
(§4) Metal chelation was determined in assay buffer (20 mM Na-HEPES, 150 mM NaCl, pH 7.4) according to the procedure described previously. Stock solutions of the metals at 100 mM concentrations were prepared in MilliQ water (Milli-Q advantage A10 Ultrapure Water Purification System, Millipore, KGaA, Darmstadt, Germany). The FeCl2 stock solution (100 mM) was prepared in the presence of ascorbic acid (1 mM). Compound 4 at a concentration of 30 μM was incubated for 30 min with equimolar concentrations of CuCl2, ZnCl2, MgCl2, CaCl2, MnCl2, FeCl2, CoCl2, and NiCl2. Absorbance spectra were measured on a Synergy™ H4 reader (BioTek Instruments, Inc., Winooski, VT, USA).

[7] = Metal chelation, UV-Vis absorption assay, Fe2+; format: physicochemical; settings: 30 µM compound, equimolar FeCl2, 30 min, pH 7.4
Description: as §3, §4

[8] = Metal chelation, UV-Vis absorption assay, Ca2+; format: physicochemical; settings: 30 µM compound, equimolar CaCl2, 30 min, pH 7.4
Description: as §3, §4

T1 sequence (P22303 32-614): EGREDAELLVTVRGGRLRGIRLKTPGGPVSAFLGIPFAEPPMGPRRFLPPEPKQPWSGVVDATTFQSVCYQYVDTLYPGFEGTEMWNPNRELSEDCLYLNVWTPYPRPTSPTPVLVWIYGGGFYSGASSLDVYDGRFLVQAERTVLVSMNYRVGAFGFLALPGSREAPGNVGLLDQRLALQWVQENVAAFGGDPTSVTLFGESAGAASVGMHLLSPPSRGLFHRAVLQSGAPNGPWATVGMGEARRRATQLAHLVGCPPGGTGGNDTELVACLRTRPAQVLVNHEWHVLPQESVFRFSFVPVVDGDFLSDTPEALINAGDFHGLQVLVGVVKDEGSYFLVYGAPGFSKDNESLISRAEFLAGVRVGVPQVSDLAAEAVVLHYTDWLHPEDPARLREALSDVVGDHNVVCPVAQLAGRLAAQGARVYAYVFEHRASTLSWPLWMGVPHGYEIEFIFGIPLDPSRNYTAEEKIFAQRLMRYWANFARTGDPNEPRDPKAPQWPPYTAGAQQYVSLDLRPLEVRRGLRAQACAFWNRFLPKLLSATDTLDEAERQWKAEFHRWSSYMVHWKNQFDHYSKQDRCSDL
T2 sequence (P06276 29-602): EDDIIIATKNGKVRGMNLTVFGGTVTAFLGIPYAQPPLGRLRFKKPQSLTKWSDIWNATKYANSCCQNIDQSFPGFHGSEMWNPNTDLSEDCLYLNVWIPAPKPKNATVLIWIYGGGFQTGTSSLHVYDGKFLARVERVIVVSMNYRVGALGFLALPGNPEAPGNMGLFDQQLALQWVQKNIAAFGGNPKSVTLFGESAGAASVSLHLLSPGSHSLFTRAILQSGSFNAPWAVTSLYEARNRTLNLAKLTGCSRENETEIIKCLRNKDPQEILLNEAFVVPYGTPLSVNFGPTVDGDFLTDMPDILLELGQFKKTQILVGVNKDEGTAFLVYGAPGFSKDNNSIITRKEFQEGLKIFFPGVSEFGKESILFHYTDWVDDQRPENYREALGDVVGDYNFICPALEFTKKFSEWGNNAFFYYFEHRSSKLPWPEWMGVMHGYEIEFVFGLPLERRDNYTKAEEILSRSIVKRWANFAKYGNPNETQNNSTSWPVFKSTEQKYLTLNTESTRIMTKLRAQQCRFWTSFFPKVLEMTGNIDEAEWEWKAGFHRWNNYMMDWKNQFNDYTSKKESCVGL

Row | SMILES | hAChE % @ 10 µM [1] [%] | inhibition at 10 µM [3] [%] | inhibition at 10 µM [4] [%] | hBChE % @ 10 µM [2] | IC50 [1] [µM] | other results
1 | COc1cc(/C=C/C(=O)NO)ccc1OCCN1CCCCC1 [Compound 1, (E)-N-Hydroxy-3-(3-methoxy-4-(2-(piperidin-1-yl)ethoxy)phenyl)acrylamide] | 51 ± 2 | 20 ± 5 | 26 ± 5 |  |  | inhibition at 10 µM [2]: 18 ± 4%
2 | COc1cc(/C=C/C(=O)NO)ccc1OCCCN1CCCCC1 [Compound 2, (E)-N-Hydroxy-3-(3-methoxy-4-(3-(piperidin-1-yl)propoxy)phenyl)acrylamide] | 42 ± 2 | 15 ± 5 | 21 ± 4 | ni |  | 
3 | COc1cc(/C=C/C(=O)NO)ccc1OCCCCN1CCCCC1 [Compound 3, (E)-N-Hydroxy-3-(3-methoxy-4-(4-(piperidin-1-yl)butoxy)phenyl)acrylamide] |  | 5 ± 3 | 11 ± 4 | ni | 6.58 ± 0.27 | 
4 | C#CCN(O)C(=O)/C=C/c1ccc(OCCN2CCCCC2)c(OC)c1 [Compound 4, (E)-N-Hydroxy-3-(3-methoxy-4-(2-(piperidin-1-yl)ethoxy)phenyl)-N-(prop-2-yn-1-yl)acrylamide] |  | 26 ± 5 | 20 ± 4 |  | 2.63 ± 0.57 | inhibition at 10 µM [2]: 38 ± 2%; EC50 [5]: 40.9 ± 0.5 µM; Cu^2+ chelation (spectral change) [6]: efficiently bound Cu^2+ ions; also recorded: chelated divalent copper ions; Fe^2+ chelation (spectral change) [7]: ferrous ions were also bound; Ca^2+ chelation (spectral change) [8]: does not appear to be due to the formation of a Ca^2+/4 complex
5 | C#CCN(O)C(=O)/C=C/c1ccc(OCCCN2CCCCC2)c(OC)c1 [Compound 5, (E)-N-Hydroxy-3-(3-methoxy-4-(3-(piperidin-1-yl)propoxy)phenyl)-N-(prop-2-yn-1-yl)acrylamide] | 41 ± 4 | 23 ± 6 | 16 ± 5 | ni |  | 
6 | C#CCN(O)C(=O)/C=C/c1ccc(OCCCCN2CCCCC2)c(OC)c1 [Compound 6, (E)-N-Hydroxy-3-(3-methoxy-4-(4-(piperidin-1-yl)butoxy)phenyl)-N-(prop-2-yn-1-yl)acrylamide] |  |  |  | ni | 7.2 ± 0.54 | hMAO-A % @ 10 µM ([3]; inhibition at 10 µM): ni; hMAO-B % @ 10 µM ([4]; inhibition at 10 µM): ni
7 | O=C(NO)c1ccccc1 [Compound 15, N-Hydroxybenzamide] | 58 ± 5 | 11 ± 3 | 16 ± 3 | ni |  | 
8 | C#CCN(O)C(=O)c1ccccc1 [Compound 16, N-Hydroxy-N-(prop-2-yn-1-yl)benzamide] | 40 ± 4 | 14 ± 4 | 16 ± 5 | ni |  | 
9 | Cc1c(C)c2c(c(C)c1O)CCC(C)(C(=O)O)O2 (stereo not shown) [Trolox, reference compound] |  |  |  |  |  | EC50 [5]: 12.4 ± 0.3 µM
